Literature values in patent publication US20190054044A1, “ORAL DOSAGE FORM OF BOTH CLOMIPHENE ISOMERS AND METHOD OF USING SAME TO TREAT SECONDARY HYPOGONADISM AND MINIMIZE DRUG SIDE EFFECTS IN MEN” (ASPEN PARK PHARMACEUTICALS, INC., priority 2016, published 2019).
Where a name gives a salt, the structure may show the parent alone.

Assays:
[1] = baboons
[2] = men
[3] = commercial doses (25 mg PO daily or 50 mg PO every other day)

## CCN(CC)CCOc1ccc(/C(=C(\Cl)c2ccccc2)c2ccccc2)cc1 (single isomer, unassigned) [cis-isomer of clomiphene]
[1]; range of doses tested
  LH secretion: inhibited LH secretion
  peripheral testosterone: reduced peripheral testosterone towards castrate blood levels

## CCN(CC)CCOc1ccc(/C(=C(/Cl)c2ccccc2)c2ccccc2)cc1 [ANDROXAL, trans clomiphene citrate]
Clinical study
  changes in visual acuity noted as an adverse event: 0.2%
  fatigue (side effect incidence): 2.8%
  headache (side effect incidence): 6.6%
  muscle spasms (side effect incidence): 4%
  transient blurred vision (side effect incidence): 1.4%
Clinical study, conducted during the cold, flu and allergy season
  upper respiratory tract infections (side effect incidence): 11.6%
Treated versus placebo subjects, clinical studies
  number of skeletal fractures: Increase in number of skeletal fractures

## CCN(CC)CCOc1ccc(C(=C(Cl)c2ccccc2)c2ccccc2)cc1 [CLOMID, clomiphene citrate]
[2]
  safety for long-term management of hypogonadism: safe
[2]; long-term
  T levels: raised T levels substantially
  osteopenia/osteoporosis: improving osteopenia/osteoporosis
[3]
  bone mineral density: decrease bone mineral density
  risk of fractures: increase the risk of fractures

## CCN(CC)CCOc1ccc(/C(=C(/Cl)c2ccccc2)c2ccccc2)cc1 [ENCLOMID]
[1]
  total serum testosterone: significantly and statistically raised total serum testosterone
